*1 amine or outer side, *2 acyl side, *3 side chain or, on linkers, in order; H or OH if unused. Where a SMILES comes first, the peptide text is derived from it. [ ]: non-standard residue; d: D form. The star is where a group is joined. NH(4-phenylbutyl) = c1ccc(CCCCN*)cc1; X1 = C[C@H](N[*:1])C(=O)C(=O)[*:2]
Assays:
PINK1 = PINK1 processing and stabilization, endogenous PINK1, sodium carbonate fractionation and immunoblot; format: cell-based, human; settings: HEK293T cells, 5 μM, 8 h
Experimental: Inducible stable Flp-In HEK293 T-REx cells expressing PINK1 were described previously.[33] HEK293 T-REx PINK1 and HEK293T cells were grown in DMEM (Gibco) supplemented with 10% (v/v) fetal bovine serum (ThermoFisher), 1% (v/v) GlutaMAX (Gibco), 1% (v/v) sodium pyruvate (Gibco), 125 μg/mL hygromycin (Invitrogen), and 10 μg/mL blasticidin (Gibco) or DMEM supplemented with 10% (v/v) fetal bovine serum, respectively, at 37 °C in 5% (v/v) CO2. For microscopy, cells were seeded on poly-L-lysine (Sigma)-coated slides. Transient plasmid transfections were performed using 25 kDa linear polyethylenimine (Polysciences). Plasmid (100 ng) encoding HA-Parkin-IRES-GFP, mito-mCherry or Parkin-mEGFP, or 500 ng plasmid encoding PGAM5-FLAG were used per 6-well. Total transfected DNA was 2 μg/well. For siRNA transfection, 2 × 10^5 cells were seeded per 6-well and on the next day transfected with 20 nM siRNA-oligonucleotide using lipofectamine RNAiMAX (ThermoFisher). Cells were analyzed 27 h post-transfection or five days post-siRNA-transfection. HEK293 T-REx PINK1 cells were induced with 0.3 μg/mL doxycycline for 24 h before further processing. […] For quantification, ImageJ was used (http://rsb.info.nih.gov/ij/). Immunoblots shown are representative of at least three independent experiments and were evaluated using Excel and GraphPad Prism 9 (GraphPad Software, Inc.).

Parkin = Parkin recruitment to mitochondria and mitochondrial morphology, fluorescence microscopy; format: cell-based, human; settings: HEK293 T-REx PINK1 cells, 3 h; 5 μM compound 5, CCCP or Antimycin A, vs DMSO
Experimental: Inducible stable Flp-In HEK293 T-REx cells expressing PINK1 were described previously.[33] HEK293 T-REx PINK1 and HEK293T cells were grown in DMEM (Gibco) supplemented with 10% (v/v) fetal bovine serum (ThermoFisher), 1% (v/v) GlutaMAX (Gibco), 1% (v/v) sodium pyruvate (Gibco), 125 μg/mL hygromycin (Invitrogen), and 10 μg/mL blasticidin (Gibco) or DMEM supplemented with 10% (v/v) fetal bovine serum, respectively, at 37 °C in 5% (v/v) CO2. For microscopy, cells were seeded on poly-L-lysine (Sigma)-coated slides. Transient plasmid transfections were performed using 25 kDa linear polyethylenimine (Polysciences). Plasmid (100 ng) encoding HA-Parkin-IRES-GFP, mito-mCherry or Parkin-mEGFP, or 500 ng plasmid encoding PGAM5-FLAG were used per 6-well. Total transfected DNA was 2 μg/well. For siRNA transfection, 2 × 10^5 cells were seeded per 6-well and on the next day transfected with 20 nM siRNA-oligonucleotide using lipofectamine RNAiMAX (ThermoFisher). Cells were analyzed 27 h post-transfection or five days post-siRNA-transfection. HEK293 T-REx PINK1 cells were induced with 0.3 μg/mL doxycycline for 24 h before further processing. Hoechst staining (1 μg/mL) was done immediately before adding treatment to the cells. Treatments were administered for the indicated times before processing; CCCP (Sigma) was always used as 10 μM for 3 h and Antimycin A (Sigma) as 30 μM for 3 h.
For fixation, cells were incubated for 15 min with 4% formaldehyde (16% formaldehyde diluted in PBS, Thermo Scientific) and washed in PBS. The cover glasses were mounted with Fluoromount-G (Southern Biotech) on microscope slides. […] Parkin recruitment events to the mitochondria were counted by hand throughout each z-stack and cell. […] JC-1 images were handled as summed intensity z-stack projections, as well as subjected to flatfield correction and subtraction of background before measuring the fluorescence levels normalized to the number of cell nuclei. The fluorescence intensity ratio between the red and green signal was calculated and compared to DMSO as a ratio of 1. Data were evaluated using Excel and GraphPad Prism 6.

CC(=O)N[C@@H](C)C(=O)N[C@H](C(=O)N[C@@H](Cc1ccccc1)C(=O)N[C@@H](CC(C)C)C(=O)N[C@@H](C)C(=O)C(=O)NCCCCc1ccccc1)C(C)C [compound 5] (Ac-AVFL[X1]-{NH(4-phenylbutyl)})
Effect on endogenous PINK1 cleavage and stabilization (PINK1): endogenous PINK1 remains largely uncleaved and is stabilized in its 66 kDa form
Effect on endogenous PINK1 cleavage and stabilization (PINK1; listed as Compound 5): inhibits PARL-catalyzed PINK1 cleavage under endogenous expression levels
Recruitment of Parkin-mEGFP to mitochondria (microscopy) (Parkin): significant recruitment of mEGFP-tagged Parkin to the mitochondria
